US11014908B2, “Chemical compounds” (Pfizer Inc., priority 2018, dated 2021)

Columns and labels:
[1] = molecular target: T1, purified sickle cell hemoglobin (HbS) (Homo sapiens, UniProt P68871+P69905, E7V); test: Binding affinity to purified HbS by Surface Plasmon Resonance (SPR); conditions: crosslinked biotinylated HbS, 1:1 binding model
T1 construct: HbS was obtained from the blood of homozygous S/S patients; from tissue; host or cells: red blood cells of homozygous S/S patients
In short: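 Patient-derived HbS, purified and crosslinked between beta subunits (Lys82-Lys82), biotinylated and captured on streptavidin sensor at 4000–5000 RU. Running buffer 100 mM potassium phosphate pH 7.5, 1 mM EDTA, 0.1 mg/mL BSA, 1% DMSO; 2 min association, ≥5 min dissociation, ≥4 concentrations; Kd from 1:1 model fit.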

HbS = molecular target: T2, HbS (Homo sapiens, UniProt P68871+P69905, E7V); test: 'R'-'T' assay (conversion of oxy HbS to deoxy HbS under deoxygenating conditions); assay type: biochemical; conditions: 50% inhibition of HbS 'R'-'T' conversion; 3 uM HbS, <1% O2
T2 construct: HbS was obtained from the blood of homozygous S/S patients; from tissue; host or cells: red blood cells of homozygous S/S patients
In short: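 Oxy HbS diluted to 3 µM in 100 mM potassium phosphate pH 7.4, incubated 1 h at room temperature with compound, then held under <1% O2 for 2 h. Conversion followed by background-corrected 415/430 nm absorbance ratio at 0, 90 and 120 min; percent effect normalized to tucaresol, IC50 from concentration series.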

Hb in human whole blood = molecular target: T3, Hb in human whole blood (Homo sapiens, UniProt P68871+P69905); test: Whole blood oxygen affinity assay (Hemox analyzer), human blood; conditions: 1 mM compound, 1 hour at 25 C, relative to DMSO
T3 construct: measured in human, dog, and mouse whole blood; from tissue; host or cells: human whole blood
From the text: Whole Blood Oxygen Affinity Assay
Oxygen affinity is a marker of the ability of Hb to bind and release oxygen in solution. It can be determined in whole blood by measuring the percentage of oxygenated and deoxygenated Hb present at a given oxygen concentration. Oxygen affinity is expressed as the p50, the partial pressure of oxygen at which 50% of the Hb in solution has oxygen bound, or the p20, the partial pressure of oxygen at which 20% of the Hb in solution has oxygen bound.
To determine the effects of compounds of the invention on oxygen affinity the p50 and p20 were measured in human, dog, and mouse whole blood using a Hemeox Analyzer (TCS Scientific). The blood was spiked with a compound of the invention to a concentration of 1 mM and incubated for 1 hour at 25 C with constant rotation. A concentration of 1 mM of compound was selected to approximate 20% hemoglobin occupancy in whole blood. Controls with the same concentration of DMSO, but no compound were incubated in the same way at the same time. Following incubation, samples were immediately assayed for oxygen affinity using the Hemox analyzer. Fifty μL of blood sample was diluted into 5 mL of hemox buffer (TCS Scientific), which had been pre-incubated to 37 C. Following dilution, samples were loaded into the analysis chamber, and fully oxygenated using compressed air. Once samples had reached an pO2 of >150 torr, the measurement was initiated by switching to N2, and the percent oxyhemoglobin as a function of partial pressure was recorded. The p20 and p50 of each sample were recorded from the instrument readout. Data are reported as the percent (%) change relative to DMSO according to the following calculations: […]

[2] = Single dose study in sickle Townes mice: exposure in whole blood; assay type: in vivo; conditions: male, Townes (sickle cell disease model), mouse, SCD mice, n=3
Experimental: In Vivo Studies Mouse Model
The effect of the compounds of the invention was evaluated in-male sickle Townes mice in a single dose study. Compounds of the invention were administered in amounts set out in Tables 7, 8 and 9 that follow by oral gavage. Control mice received vehicle. Blood (50 μL) was drawn at 0.5 h, 1 h, 4 h, 7 h, 10 h, and 24 h. To measure exposure in whole blood, 20 μL sample was used. Blood drawn at 0.5 h was also evaluated for cell sickling.

Townes SCD mice = test: Chronic dosing study (BID, 15 days) in Townes SCD mice; assay type: in vivo, mouse; conditions: 100 mg/kg BID for 15 days, n=4-5, Townes SCD mice, vs vehicle
Experimental: Following 15 days of dosing, blood samples were collected from all animals to run in the Hemeox analyzer to generate oxygen affinity curves, complete blood analysis was performed using Idexx hematology Analyzer, and cell sickling assessed as described before. Soluble Vascular Adhesion Molecule 1 levels (sVCAM1) were assessed by Enzyme linked immunosorbent assay (ELISA) from R&D systems. Results are presented below in Tables 7, 8 and 9.

SMILES | Kd [1] [nM] | IC50 (HbS) [nM] | Reduction in p20 (%) Human (Hb in human whole blood) [%] | Reduction in p50 (%) Human (Hb in human whole blood) [%] | also measured
C[C@H](Oc1cc2cc(F)ccc2nc1N)c1cc(C(=O)O)ccc1-n1cccn1 [Example 4, 3-{(1S)-1-[(2-amino-6-fluoroquinolin-3-yl)oxy]ethyl}-4-(1H-pyrazol-1-yl)benzoic Acid] | 100 | 4920 | 40 ± 4 | 7 ± 3 | –
C[C@H](Oc1cc2cc(C(N)=O)ccc2nc1N)c1ncc(F)cc1-n1cccn1 [Example 27, 2-amino-3-{(1S)-1-[5-fluoro-3-(1H-pyrazol-1-yl)pyridin-2-yl]ethoxy}quinoline-6-carboxamide] | 183 | 5360 | 70 ± 4 | 26 ± 1 | concentration at 0.5 h ([2]; single dose 5 mg/kg oral gavage): 7.4 µM; concentration at 0.5 h ([2]; single dose 50 mg/kg oral gavage): 208 µM; Hb, Change (increase) (Townes SCD mice): 54.4 ± 8.7% increase; Hematocrit, Change (increase) (Townes SCD mice): 42.0 ± 12.7% increase; RBC sickling, Change (decrease) (Townes SCD mice): 19.2 ± 5.4% decrease; RBCs, Change (increase) (Townes SCD mice): 51.9 ± 8.3% increase; Reticulocytes, Change (decrease) (Townes SCD mice): 18.4 ± 5.5% decrease; p20, Change (decrease) (Townes SCD mice): 10.8 ± 3.8% decrease; p50, Change (decrease) (Townes SCD mice): 7.89 ± 3.36% decrease
C[C@H](Oc1cc2cc(C(N)=O)ccc2nc1N)c1cc2[nH]ncc2cc1-n1cccn1 [Example 61, 2-amino-3-{(1S)-1-[5-(1H-pyrazol-1-yl)-1H-indazol-6-yl]ethoxy}quinoline-6-carboxamide] | 36 | 5450 | 14 ± 8 | 1 ± 6 | –
Cc1cc2nc(N)c(O[C@@H](C)c3nc4[nH]ncc4cc3-n3cccn3)cc2cn1 [Example 75, 7-methyl-3-{(1S)-1-[5-(1H-pyrazol-1-yl)-1H-pyrazolo[3,4-b]pyridin-6-yl]ethoxy}-1,6-naphthyridin-2-amine] | 36 | 3760 | – | – | –
C[C@H](Oc1cc2cc(C(N)=O)c(F)cc2nc1N)c1nc2[nH]ncc2cc1-n1cccn1 [Example 76, 2-amino-7-fluoro-3-{(1S)-1-[5-(1H-pyrazol-1-yl)-1H-pyrazolo[3,4-b]pyridin-6-yl]ethoxy}quinoline-6-carboxamide] | 14 | 28900 | – | – | –
Cc1cc2nc(N)c(O[C@@H](C)c3nc4c(cnn4CCO)cc3-n3cccn3)cc2cn1 [Example 77, 2-[6-{(1S)-1-[(2-amino-7-methyl-1,6-naphthyridin-3-yl)oxy]ethyl}-5-(1H-pyrazol-1-yl)-1H-pyrazolo[3,4-b]pyridin-1-yl]ethanol] | 195 | 6300 | – | – | –
